In ChEMBL document CHEMBL4000237, “Synthesis and biological evaluation of thiazole derivatives as novel USP7 inhibitors” (Bioorg Med Chem Lett, 2017):

Legend:
[1] = molecular target: Ubiquitin carboxyl-terminal hydrolase 7 (Homo sapiens, UniProt Q93009); test: Inhibition of USP7 (unknown origin) using Ub-Rho as substrate preincubated for 30 mins followed by substrate addition and subsequent incubation in dark for 3 hrs by fluorescence assay
[2] = system: HCT-116; test: Antiproliferative activity against human HCT116 cells expressing wild type p53 assessed as decrease in cell viability after 72 hrs by MTT assay; details: HCT-116, 72 h
[3] = Antiproliferative activity against human […] cells expressing p53 mutant assessed as decrease in cell viability after 72 hrs by MTT assay; assay type: functional, cell-based
[4] = system: NCI-H1299; test: Antiproliferative activity against p53 deficient human NCI-H1299 cells assessed as decrease in cell viability after 72 hrs by MTT assay; assay type: functional, cell-based; details: NCI-H1299, 72 h

Sequence of Ubiquitin carboxyl-terminal hydrolase 7 (Q93009 whole entry): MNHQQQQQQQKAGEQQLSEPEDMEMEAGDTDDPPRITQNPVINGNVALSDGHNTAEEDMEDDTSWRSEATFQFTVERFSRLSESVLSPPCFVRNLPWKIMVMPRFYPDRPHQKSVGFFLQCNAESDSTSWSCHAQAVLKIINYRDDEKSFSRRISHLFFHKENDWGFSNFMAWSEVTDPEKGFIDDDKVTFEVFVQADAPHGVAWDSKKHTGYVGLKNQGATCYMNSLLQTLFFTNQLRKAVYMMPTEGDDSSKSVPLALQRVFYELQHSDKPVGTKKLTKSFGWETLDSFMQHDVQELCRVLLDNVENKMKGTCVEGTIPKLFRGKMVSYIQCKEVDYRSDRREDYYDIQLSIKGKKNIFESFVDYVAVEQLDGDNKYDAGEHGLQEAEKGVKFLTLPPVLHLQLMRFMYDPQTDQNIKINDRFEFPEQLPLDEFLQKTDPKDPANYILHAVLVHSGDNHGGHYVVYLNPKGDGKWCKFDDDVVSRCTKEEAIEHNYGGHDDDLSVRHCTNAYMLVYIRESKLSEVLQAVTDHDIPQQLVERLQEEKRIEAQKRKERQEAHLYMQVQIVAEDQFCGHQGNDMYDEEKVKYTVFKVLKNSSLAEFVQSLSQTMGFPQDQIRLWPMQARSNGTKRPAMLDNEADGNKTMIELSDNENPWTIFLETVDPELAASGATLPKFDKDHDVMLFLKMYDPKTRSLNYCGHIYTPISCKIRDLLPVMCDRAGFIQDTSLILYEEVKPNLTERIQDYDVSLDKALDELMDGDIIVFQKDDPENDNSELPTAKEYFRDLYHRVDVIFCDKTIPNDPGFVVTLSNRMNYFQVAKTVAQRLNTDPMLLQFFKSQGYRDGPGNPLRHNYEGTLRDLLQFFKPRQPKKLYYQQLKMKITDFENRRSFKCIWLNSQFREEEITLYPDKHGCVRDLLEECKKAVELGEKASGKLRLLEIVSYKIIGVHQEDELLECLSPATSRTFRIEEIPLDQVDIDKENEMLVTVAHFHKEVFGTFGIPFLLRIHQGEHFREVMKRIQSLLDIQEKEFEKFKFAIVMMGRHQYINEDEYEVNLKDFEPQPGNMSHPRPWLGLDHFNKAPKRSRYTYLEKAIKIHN

Compound | IC50 [1] [µM] | IC50 [2] [µM] | IC50 [4] [µM] | IC50 [3] [µM]
CC(O)c1nc([N+](=O)[O-])c(Sc2c(Cl)cncc2Cl)s1 (stereo unspecified) | 6.95 | 18.6 | – | –
CC(=O)c1nc([N+](=O)[O-])c(Sc2c(Cl)cccc2Cl)s1 | 4.49 | 19.3 | – | –
O=C(NCc1ccccc1)c1nc([N+](=O)[O-])c(Sc2c(Cl)cncc2Cl)s1 | 4.21 | 13.5 | – | –
CC(=O)c1nc([N+](=O)[O-])c(Sc2ccc(Cl)c(Cl)c2)s1 | 18 | 16.4 | – | –
CC(NCc1ccccc1)c1nc([N+](=O)[O-])c(Sc2c(Cl)cncc2Cl)s1 (stereo unspecified) | 26.8 | 11.8 | – | –
CC(=O)c1nc([N+](=O)[O-])c(NCc2ccc(Cl)c(Cl)c2)s1 | > 50 | > 50 | – | –
COc1ccc(Sc2sc(C(C)=O)nc2[N+](=O)[O-])cc1OC | > 50 | 24 | – | –
O=C(Nc1ccccc1)c1nc([N+](=O)[O-])c(Sc2c(Cl)cncc2Cl)s1 | 40.5 | 12.4 | – | –
CC(=O)c1nc([N+](=O)[O-])c(Sc2c(Cl)cncc2Cl)s1 | 0.67 | 8.45 | 6.21 | 11
O=C(NCc1cccc(F)c1)c1nc([N+](=O)[O-])c(Sc2c(Cl)cncc2Cl)s1 | 1.35 | 6.36 | 3.68 | 6.11
CC(=O)c1nc([N+](=O)[O-])c(Sc2ccc(F)cc2F)s1 | 6.12 | 10.2 | – | –

More lines, main results first:

IC50 [1] [µM] | IC50 [2] [µM] | IC50 [4] [µM] | Compound | IC50 [3] [µM]
> 50 | > 50 | – | CC(=O)c1ncc(Sc2cccc(Cl)c2Cl)s1 | –
9.93 | 9.29 | – | CC(=O)c1nc([N+](=O)[O-])c(Sc2cccc(Cl)c2Cl)s1 | –
> 50 | 24.8 | – | CC(=O)OC(C)c1nc([N+](=O)[O-])c(Sc2c(Cl)cncc2Cl)s1 (stereo unspecified) | –
> 50 | > 50 | – | CC(=O)c1ncc(Sc2ccc(Cl)c(Cl)c2)s1 | –
2.65 | 11.2 | – | O=C(NCc1ccc(F)cc1)c1nc([N+](=O)[O-])c(Sc2c(Cl)cncc2Cl)s1 | –
3.65 | 6.64 | – | Cc1ccc(CNC(=O)c2nc([N+](=O)[O-])c(Sc3c(Cl)cncc3Cl)s2)cc1 | –
16.8 | 12.5 | – | CC(=O)c1nc([N+](=O)[O-])c(Sc2ccc(Cl)cc2Cl)s1 | –
> 50 | 12 | – | CC(OC(=O)c1ccccc1)c1nc([N+](=O)[O-])c(Sc2c(Cl)cncc2Cl)s1 (stereo unspecified) | –
4.49 | 11.7 | – | CCCC(=O)OC(C)c1nc([N+](=O)[O-])c(Sc2c(Cl)cncc2Cl)s1 (stereo unspecified) | –
> 50 | 17.3 | – | COc1cccc(Sc2sc(C(C)=O)nc2[N+](=O)[O-])c1 | –
